According to ChEMBL document CHEMBL5365500, “Development and Antibacterial Properties of 4-[4-(Anilinomethyl)-3-phenylpyrazol-1-yl]benzoic Acid Derivatives as Fatty Acid Biosynthesis Inhibitors” (J Med Chem, 2023):
Converted amounts (≈) assume the structure as drawn.

Key:
Type in all cases: functional
Settings in all cases: time 20-24 hrs
Enterococcus faecium = assay: Antimicrobial activity against antibiotic-resistant Enterococcus faecium ATCC 700221 assessed as inhibition of visible growth measured after 20 to 24 hrs incubation by CLSI method
Staphylococcus aureus [1] = assay: Antimicrobial activity against Staphylococcus aureus ATCC 25923 assessed as inhibition of visible growth measured after 20 to 24 hrs incubation by CLSI method
[2] = system: Staphylococcus epidermidis; assay: Antimicrobial activity against antibiotic-resistant Staphylococcus epidermidis ATCC 700296 assessed as inhibition of visible growth measured after 20 to 24 hrs incubation by CLSI method
Staphylococcus aureus [3] = assay: Antimicrobial activity against antibiotic-resistant Staphylococcus aureus ATCC 33591 assessed as inhibition of visible growth measured after 20 to 24 hrs incubation by CLSI method
Staphylococcus aureus [4] = assay: Antimicrobial activity against antibiotic-resistant Staphylococcus aureus ATCC BAA-2312 assessed as inhibition of visible growth measured after 20 to 24 hrs incubation by CLSI method
Bacillus subtilis = assay: Antimicrobial activity against antibiotic-resistant Bacillus subtilis ATCC 6623 assessed as inhibition of visible growth measured after 20 to 24 hrs incubation by CLSI method
Staphylococcus aureus [5] = assay: Antimicrobial activity against antibiotic-resistant Staphylococcus aureus ATCC 700699 assessed as inhibition of visible growth measured after 20 to 24 hrs incubation by CLSI method
Enterococcus faecalis [6] = assay: Antimicrobial activity against antibiotic-resistant Enterococcus faecalis ATCC 51299 assessed as inhibition of visible growth measured after 20 to 24 hrs incubation by CLSI method
Staphylococcus aureus [7] = assay: Antimicrobial activity against antibiotic-resistant Staphylococcus aureus ATCC 33592 assessed as inhibition of visible growth measured after 20 to 24 hrs incubation by CLSI method
Enterococcus faecalis [8] = assay: Antimicrobial activity against antibiotic-susceptible Enterococcus faecalis ATCC 29212 assessed as inhibition of visible growth measured after 20 to 24 hrs incubation by CLSI method

Structure (SMILES)	MIC (Enterococcus faecium) [mg/L]	MIC (Staphylococcus aureus [1]) [mg/L]	MIC [2] [mg/L]	MIC (Staphylococcus aureus [3]) [mg/L]	MIC (Staphylococcus aureus [4]) [mg/L]	MIC (Bacillus subtilis) [mg/L]	MIC (Staphylococcus aureus [5]) [mg/L]	MIC (Enterococcus faecalis [6]) [mg/L]	MIC (Staphylococcus aureus [7]) [mg/L]	MIC (Enterococcus faecalis [8]) [mg/L]
O=C(O)c1ccc(-n2cc(CNc3ccc(Cl)c(C(F)(F)F)c3)c(-c3ccc(F)cc3)n2)cc1	2 (≈ 4.08 µM)	2 (≈ 4.08 µM)	4 (≈ 8.17 µM)	1 (≈ 2.04 µM)	2 (≈ 4.08 µM)	1 (≈ 2.04 µM)	1 (≈ 2.04 µM)	8 (≈ 16.3 µM)	2 (≈ 4.08 µM)	8 (≈ 16.3 µM)
O=C(O)c1ccc(-n2cc(CNc3ccc(Br)c(C(F)(F)F)c3)c(-c3ccc(F)c(F)c3)n2)cc1	2 (≈ 3.62 µM)	0.5 (≈ 0.905 µM)	4 (≈ 7.24 µM)	0.5 (≈ 0.905 µM)	0.5 (≈ 0.905 µM)	1 (≈ 1.81 µM)	1 (≈ 1.81 µM)	4 (≈ 7.24 µM)	0.5 (≈ 0.905 µM)	2 (≈ 3.62 µM)
O=C(O)c1ccc(-n2cc(CNc3cc(Cl)c(F)cc3F)c(-c3ccc(F)c(F)c3)n2)cc1	> 32	> 32	> 32	> 32	> 32	> 32	> 32	> 32	> 32	> 32
O=C(O)c1ccc(-n2cc(CNc3ccc(Br)cc3)c(-c3ccc(F)c(F)c3)n2)cc1	> 32	> 32	> 32	> 32	> 32	> 32	> 32	> 32	> 32	> 32
O=C(O)c1ccc(-n2cc(CNc3cccc(OC(F)(F)F)c3)c(-c3ccc(F)cc3)n2)cc1	16 (≈ 33.9 µM)	4 (≈ 8.49 µM)	8 (≈ 17 µM)	2 (≈ 4.24 µM)	4 (≈ 8.49 µM)	2 (≈ 4.24 µM)	8 (≈ 17 µM)	16 (≈ 33.9 µM)	8 (≈ 17 µM)	16 (≈ 33.9 µM)
O=C(O)c1ccc(-n2cc(CNc3cccc(Br)c3)c(-c3cccc(F)c3)n2)cc1	16 (≈ 34.3 µM)	4 (≈ 8.58 µM)	16 (≈ 34.3 µM)	2 (≈ 4.29 µM)	4 (≈ 8.58 µM)	2 (≈ 4.29 µM)	8 (≈ 17.2 µM)	16 (≈ 34.3 µM)	8 (≈ 17.2 µM)	16 (≈ 34.3 µM)
O=C(O)c1ccc(-n2cc(CNc3ccccc3)c(-c3ccc(F)cc3)n2)cc1	> 32	32 (≈ 82.6 µM)	32 (≈ 82.6 µM)	32 (≈ 82.6 µM)	32 (≈ 82.6 µM)	16 (≈ 41.3 µM)	32 (≈ 82.6 µM)	> 32	32 (≈ 82.6 µM)	> 32
O=C(O)c1ccc(-n2cc(CNc3ccc(Br)c(C(F)(F)F)c3)c(-c3ccc(F)cc3)n2)cc1	2 (≈ 3.74 µM)	2 (≈ 3.74 µM)	4 (≈ 7.49 µM)	0.5 (≈ 0.936 µM)	1 (≈ 1.87 µM)	1 (≈ 1.87 µM)	1 (≈ 1.87 µM)	4 (≈ 7.49 µM)	2 (≈ 3.74 µM)	4 (≈ 7.49 µM)
CC(C)c1ccc(NCc2cn(-c3ccc(C(=O)O)cc3)nc2-c2ccc(F)cc2)cc1	4 (≈ 9.31 µM)	8 (≈ 18.6 µM)	8 (≈ 18.6 µM)	4 (≈ 9.31 µM)	4 (≈ 9.31 µM)	2 (≈ 4.66 µM)	4 (≈ 9.31 µM)	8 (≈ 18.6 µM)	8 (≈ 18.6 µM)	16 (≈ 37.3 µM)
O=C(O)c1ccc(-n2cc(CNc3ccc(F)c(Cl)c3)c(-c3ccc(F)c(F)c3)n2)cc1	8 (≈ 17.5 µM)	8 (≈ 17.5 µM)	8 (≈ 17.5 µM)	2 (≈ 4.37 µM)	4 (≈ 8.74 µM)	2 (≈ 4.37 µM)	8 (≈ 17.5 µM)	32 (≈ 69.9 µM)	8 (≈ 17.5 µM)	16 (≈ 34.9 µM)
O=C(O)c1ccc(-n2cc(CNc3cccc(Br)c3)c(-c3ccc(F)cc3)n2)cc1	16 (≈ 34.3 µM)	8 (≈ 17.2 µM)	16 (≈ 34.3 µM)	4 (≈ 8.58 µM)	8 (≈ 17.2 µM)	4 (≈ 8.58 µM)	8 (≈ 17.2 µM)	32 (≈ 68.6 µM)	16 (≈ 34.3 µM)	32 (≈ 68.6 µM)
O=C(O)c1ccc(-n2cc(CNc3ccc(F)c(C(F)(F)F)c3)c(-c3ccc(F)cc3)n2)cc1	16 (≈ 33.8 µM)	4 (≈ 8.45 µM)	8 (≈ 16.9 µM)	2 (≈ 4.22 µM)	4 (≈ 8.45 µM)	2 (≈ 4.22 µM)	8 (≈ 16.9 µM)	16 (≈ 33.8 µM)	4 (≈ 8.45 µM)	16 (≈ 33.8 µM)
O=C(O)c1ccc(-n2cc(CNc3cc(Cl)cc(C(F)(F)F)c3)c(-c3ccc(F)cc3)n2)cc1	4 (≈ 8.17 µM)	4 (≈ 8.17 µM)	8 (≈ 16.3 µM)	2 (≈ 4.08 µM)	4 (≈ 8.17 µM)	4 (≈ 8.17 µM)	2 (≈ 4.08 µM)	16 (≈ 32.7 µM)	4 (≈ 8.17 µM)	16 (≈ 32.7 µM)
O=C(O)c1ccc(-n2cc(CNc3ccc(F)cc3)c(-c3ccc(F)cc3)n2)cc1	> 32	16 (≈ 39.5 µM)	32 (≈ 78.9 µM)	16 (≈ 39.5 µM)	32 (≈ 78.9 µM)	16 (≈ 39.5 µM)	16 (≈ 39.5 µM)	> 32	16 (≈ 39.5 µM)	> 32
O=C(O)c1ccc(-n2cc(CNc3cc(F)c(F)c(F)c3)c(-c3ccc(F)c(F)c3)n2)cc1	8 (≈ 17.4 µM)	8 (≈ 17.4 µM)	16 (≈ 34.8 µM)	4 (≈ 8.71 µM)	8 (≈ 17.4 µM)	4 (≈ 8.71 µM)	8 (≈ 17.4 µM)	> 32	8 (≈ 17.4 µM)	> 32
O=C(O)c1ccc(-n2cc(CNc3cc(Cl)c(F)c(Cl)c3)c(-c3ccc(F)c(F)c3)n2)cc1	1 (≈ 2.03 µM)	1 (≈ 2.03 µM)	2 (≈ 4.06 µM)	0.25 (≈ 0.508 µM)	0.5 (≈ 1.02 µM)	0.5 (≈ 1.02 µM)	1 (≈ 2.03 µM)	4 (≈ 8.13 µM)	1 (≈ 2.03 µM)	4 (≈ 8.13 µM)
O=C(O)c1ccc(-n2cc(CNc3ccc(F)c(F)c3)c(-c3ccc(F)cc3)n2)cc1	> 32	> 32	> 32	> 32	> 32	16 (≈ 37.8 µM)	16 (≈ 37.8 µM)	> 32	> 32	> 32
O=C(O)c1ccc(-n2cc(CNc3ccc(F)c(Cl)c3F)c(-c3ccc(F)c(F)c3)n2)cc1	4 (≈ 8.41 µM)	4 (≈ 8.41 µM)	8 (≈ 16.8 µM)	2 (≈ 4.2 µM)	4 (≈ 8.41 µM)	1 (≈ 2.1 µM)	4 (≈ 8.41 µM)	> 32	4 (≈ 8.41 µM)	16 (≈ 33.6 µM)
COc1ccc(NCc2cn(-c3ccc(C(=O)O)cc3)nc2-c2ccc(F)cc2)cc1C(F)(F)F	32 (≈ 65.9 µM)	16 (≈ 33 µM)	16 (≈ 33 µM)	8 (≈ 16.5 µM)	16 (≈ 33 µM)	8 (≈ 16.5 µM)	8 (≈ 16.5 µM)	32 (≈ 65.9 µM)	16 (≈ 33 µM)	32 (≈ 65.9 µM)
O=C(O)c1ccc(-n2cc(CNc3cc(Cl)cc(Cl)c3)c(-c3ccc(F)c(F)c3)n2)cc1	2 (≈ 4.22 µM)	1 (≈ 2.11 µM)	2 (≈ 4.22 µM)	0.5 (≈ 1.05 µM)	1 (≈ 2.11 µM)	0.5 (≈ 1.05 µM)	2 (≈ 4.22 µM)	8 (≈ 16.9 µM)	2 (≈ 4.22 µM)	4 (≈ 8.43 µM)
O=C(O)c1ccc(-n2cc(CNc3cc(F)c(F)c(F)c3)c(-c3cccc(F)c3)n2)cc1	16 (≈ 36.2 µM)	4 (≈ 9.06 µM)	8 (≈ 18.1 µM)	1 (≈ 2.27 µM)	4 (≈ 9.06 µM)	4 (≈ 9.06 µM)	8 (≈ 18.1 µM)	32 (≈ 72.5 µM)	4 (≈ 9.06 µM)	32 (≈ 72.5 µM)
Cc1ccc(NCc2cn(-c3ccc(C(=O)O)cc3)nc2-c2ccc(F)cc2)cc1Cl	16 (≈ 36.7 µM)	32 (≈ 73.4 µM)	32 (≈ 73.4 µM)	16 (≈ 36.7 µM)	16 (≈ 36.7 µM)	8 (≈ 18.4 µM)	4 (≈ 9.18 µM)	> 32	16 (≈ 36.7 µM)	> 32
CC(C)(C)c1ccc(NCc2cn(-c3ccc(C(=O)O)cc3)nc2-c2ccc(F)cc2)cc1	4 (≈ 9.02 µM)	4 (≈ 9.02 µM)	8 (≈ 18 µM)	2 (≈ 4.51 µM)	2 (≈ 4.51 µM)	2 (≈ 4.51 µM)	4 (≈ 9.02 µM)	8 (≈ 18 µM)	4 (≈ 9.02 µM)	8 (≈ 18 µM)
O=C(O)c1ccc(-n2cc(CNc3cccc(C(F)(F)F)c3)c(-c3ccc(F)c(F)c3)n2)cc1	4 (≈ 8.45 µM)	4 (≈ 8.45 µM)	8 (≈ 16.9 µM)	1 (≈ 2.11 µM)	2 (≈ 4.22 µM)	1 (≈ 2.11 µM)	8 (≈ 16.9 µM)	8 (≈ 16.9 µM)	4 (≈ 8.45 µM)	8 (≈ 16.9 µM)
O=C(O)c1ccc(-n2cc(CNc3ccc(Cl)c(Cl)c3)c(-c3cccc(F)c3)n2)cc1	4 (≈ 8.77 µM)	2 (≈ 4.38 µM)	4 (≈ 8.77 µM)	1 (≈ 2.19 µM)	2 (≈ 4.38 µM)	1 (≈ 2.19 µM)	2 (≈ 4.38 µM)	8 (≈ 17.5 µM)	4 (≈ 8.77 µM)	8 (≈ 17.5 µM)
O=C(O)c1ccc(-n2cc(CNc3cc(F)cc(C(F)(F)F)c3)c(-c3ccc(F)c(F)c3)n2)cc1	4 (≈ 8.14 µM)	2 (≈ 4.07 µM)	4 (≈ 8.14 µM)	1 (≈ 2.04 µM)	2 (≈ 4.07 µM)	1 (≈ 2.04 µM)	2 (≈ 4.07 µM)	8 (≈ 16.3 µM)	1 (≈ 2.04 µM)	8 (≈ 16.3 µM)
O=C(O)c1ccc(-n2cc(CNc3ccc(Oc4ccccc4)cc3)c(-c3ccc(F)cc3)n2)cc1	4 (≈ 8.34 µM)	2 (≈ 4.17 µM)	4 (≈ 8.34 µM)	1 (≈ 2.09 µM)	2 (≈ 4.17 µM)	2 (≈ 4.17 µM)	2 (≈ 4.17 µM)	4 (≈ 8.34 µM)	4 (≈ 8.34 µM)	8 (≈ 16.7 µM)
